Measured values published in patent US20080234262A1 (Wyeth, priority 2007, published 2008).

Legend:
[1] = system: breast line MDA468; test: In vitro cell culture growth assay (MTS), MDA468; format: cell-based, human; conditions: MDA468 cells, three days after drug treatment
Method in brief: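 Steps: plate cells; add inhibitors the next day; incubate 3 days; add MTS dye, which viable cells convert metabolically; measure absorbance at 490 nm; calculate percent of control growth relative to vehicle-treated cells in the same plate.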

[2] = biological target: PI3K (Homo sapiens, UniProt P42336); test: Fluorescence polarization assay for PI3K; format: biochemical; conditions: PI3Kα; read-out: PI3Kα IC50;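 also: PI3K kinase reaction on PIP2 with ATP, 30-60 min, product sensed by GST-GRP with red probe in fluorescence polarization (mP), controls without enzyme and at zero time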
Chain of PI3K (P42336 whole entry): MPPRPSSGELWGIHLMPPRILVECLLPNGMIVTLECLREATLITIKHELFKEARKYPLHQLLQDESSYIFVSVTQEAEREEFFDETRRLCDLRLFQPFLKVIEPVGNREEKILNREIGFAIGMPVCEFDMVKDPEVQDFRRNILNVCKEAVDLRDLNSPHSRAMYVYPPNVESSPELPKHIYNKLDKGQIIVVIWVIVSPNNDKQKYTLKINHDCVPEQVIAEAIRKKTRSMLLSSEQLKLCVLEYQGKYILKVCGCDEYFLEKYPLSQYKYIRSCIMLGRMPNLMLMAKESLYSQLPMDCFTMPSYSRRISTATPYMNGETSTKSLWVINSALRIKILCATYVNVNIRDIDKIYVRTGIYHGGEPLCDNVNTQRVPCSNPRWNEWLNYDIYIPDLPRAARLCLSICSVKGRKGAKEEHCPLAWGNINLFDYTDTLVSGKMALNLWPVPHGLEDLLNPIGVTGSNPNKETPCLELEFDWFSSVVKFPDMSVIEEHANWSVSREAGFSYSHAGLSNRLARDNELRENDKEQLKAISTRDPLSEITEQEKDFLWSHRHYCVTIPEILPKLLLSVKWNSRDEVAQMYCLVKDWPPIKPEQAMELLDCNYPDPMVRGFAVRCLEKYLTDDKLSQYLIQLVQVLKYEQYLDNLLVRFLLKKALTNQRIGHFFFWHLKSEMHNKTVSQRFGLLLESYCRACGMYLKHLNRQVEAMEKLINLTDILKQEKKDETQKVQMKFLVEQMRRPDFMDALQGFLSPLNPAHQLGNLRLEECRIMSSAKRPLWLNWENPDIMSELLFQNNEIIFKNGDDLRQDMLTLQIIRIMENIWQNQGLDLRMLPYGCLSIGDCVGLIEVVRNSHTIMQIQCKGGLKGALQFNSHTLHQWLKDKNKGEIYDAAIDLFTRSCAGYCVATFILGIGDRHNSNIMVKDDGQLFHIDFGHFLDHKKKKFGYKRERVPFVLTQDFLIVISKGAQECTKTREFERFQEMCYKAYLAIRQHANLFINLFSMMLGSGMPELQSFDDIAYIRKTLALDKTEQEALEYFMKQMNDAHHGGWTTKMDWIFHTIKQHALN
Chain of PI3K (P27986 whole entry partner): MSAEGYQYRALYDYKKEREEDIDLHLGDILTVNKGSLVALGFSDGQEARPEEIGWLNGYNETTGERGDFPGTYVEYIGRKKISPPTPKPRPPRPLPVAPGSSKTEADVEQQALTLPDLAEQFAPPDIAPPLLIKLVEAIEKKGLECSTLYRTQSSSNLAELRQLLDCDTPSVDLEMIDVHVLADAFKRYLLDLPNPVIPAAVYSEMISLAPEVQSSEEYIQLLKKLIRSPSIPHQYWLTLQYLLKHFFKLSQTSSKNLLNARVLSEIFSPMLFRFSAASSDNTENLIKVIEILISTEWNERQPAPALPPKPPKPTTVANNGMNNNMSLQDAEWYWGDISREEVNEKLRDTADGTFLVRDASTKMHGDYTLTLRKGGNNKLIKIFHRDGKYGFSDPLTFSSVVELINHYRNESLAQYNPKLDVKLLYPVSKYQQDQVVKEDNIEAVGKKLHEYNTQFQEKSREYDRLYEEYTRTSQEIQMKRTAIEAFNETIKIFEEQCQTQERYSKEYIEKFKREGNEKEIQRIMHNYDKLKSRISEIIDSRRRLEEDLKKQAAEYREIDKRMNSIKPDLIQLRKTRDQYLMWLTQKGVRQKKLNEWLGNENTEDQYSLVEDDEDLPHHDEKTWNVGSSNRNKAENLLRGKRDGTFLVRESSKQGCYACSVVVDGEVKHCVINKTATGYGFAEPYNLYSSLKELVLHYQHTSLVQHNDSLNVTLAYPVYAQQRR

[3] = system: prostate line LNCap; test: In vitro cell culture growth assay (MTS), LNCap; format: cell-based, human; conditions: LNCap cells, three days after drug treatment;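 also: viable cell density read by absorbance at 490 nm, growth expressed as percent of vehicle-treated cells on the same plate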

Row | Compound | IC50 ([1]; Homo sapiens, 72 h) [nM] | IC50 [2] [nM] | IC50 ([3]; Homo sapiens, LNCaP, 72 h) [nM] | IC50 [1] [nM] | IC50 [3] [nM]
1 | COC(=O)Nc1ccc(-c2nc(N3CCOCC3)c3cnn(C4CCN(Cc5cccnc5OC)CC4)c3n2)cc1 [Compound 452, methyl [4-(1-{1-[(2-methoxypyridin-3-yl)methyl]piperidin-4-yl}-4-morpholin-4-yl-1H-pyrazolo[3,4-d]pyrimidin-6-yl)phenyl]carbamate] | 2200 | 1830 | 600 | – | –
2 | O=C(C1CC1)N1CCC(n2ncc3c(N4CCOCC4)nc(-c4cccc(O)c4)nc32)CC1 [Example 21] | 1400 | 98 | 500 | – | –
3 | CNC(=O)Nc1ccc(-c2nc(N3CCOCC3)c3cnn(C4CCN(C(=O)c5cccc(F)c5)CC4)c3n2)cc1 [Example 357, 1-(4-{1-[1-(3-fluorobenzoyl)piperidin-4-yl]-4-morpholin-4-yl-1H-pyrazolo[3,4-d]pyrimidin-6-yl}phenyl)-3-methylurea] | 100 | 89 | 27 | – | –
4 | O=C(Nc1ccc(-c2nc(N3CCOCC3)c3cnn(C4CCN(Cc5cccnc5)CC4)c3n2)cc1)NC1CC1 [Compound 649, 1-cyclopropyl-3-(4-{4-morpholin-4-yl-1-[1-(pyridin-3-ylmethyl)piperidin-4-yl]-1H-pyrazolo[3,4-d]pyrimidin-6-yl}phenyl)urea] | – | 438 | – | 85 | < 27
5 | COc1cc(-c2nc(N3CCOCC3)c3cnn(C4CCN(Cc5ccccc5)CC4)c3n2)ccc1NC(C)=O [Compound 182] | 4100 | 3930 | 5000 | – | –
6 | O=C(NCCO)Nc1ccc(-c2nc(N3CCOCC3)c3cnn(C4CCN(C(=O)c5cccnc5)CC4)c3n2)cc1 [Example 304, 1-(2-hydroxyethyl)-3-(4-{4-morpholin-4-yl-1-[1-(pyridin-3-ylcarbonyl)piperidin-4-yl]-1H-pyrazolo[3,4-d]pyrimidin-6-yl}phenyl)urea] | 9000 | 220 | 7500 | – | –
7 | CC(C)(C)OC(=O)N1CCC(n2ncc3c(N4CCOCC4)nc(-c4ccc(NC(=O)Nc5ncccn5)cc4)nc32)CC1 [Compound 886, tert-butyl 4-(4-morpholin-4-yl-6-{4-[(pyrimidin-2-ylcarbamoyl)amino]phenyl}-1H-pyrazolo[3,4-d]pyrimidin-1-yl)piperidine-1-carboxylate] | 6700 | 1230 | 2600 | – | –
8 | OCCCN1CCC(n2ncc3c(N4CCOCC4)nc(-c4ccc5[nH]ccc5c4)nc32)CC1 [Compound 497, 3-{4-[6-(1H-indol-5-yl)-4-morpholin-4-yl-1H-pyrazolo[3,4-d]pyrimidin-1-yl]piperidin-1-yl}propan-1-ol] | 3000 | 7290 | 2500 | – | –
9 | CC(C)N1CCC(n2ncc3c(N4CCOCC4)nc(-c4ccc5[nH]ccc5c4)nc32)CC1 [Compound 238, 6-(1H-indol-5-yl)-1-(1-isopropylpiperidin-4-yl)-4-morpholin-4-yl-1H-pyrazolo[3,4-d]pyrimidine] | 2900 | 3750 | 2500 | – | –
10 | CNC(=O)Nc1ccc(-c2nc(N3CCOCC3)c3cnn(C4CCN(CC(N)=O)CC4)c3n2)cc1 [Compound 576, 2-[4-(6-{4-[(methylcarbamoyl)amino]phenyl}-4-morpholin-4-yl-1H-pyrazolo[3,4-d]pyrimidin-1-yl)piperidin-1-yl]acetamide] | 1000 | 66 | 600 | – | –
11 | COC(=O)N1CCC(n2ncc3c(N4CCOCC4)nc(-c4ccc(NC(=O)NCCO)cc4)nc32)CC1 [Compound 733, methyl 4-[6-(4-{[(2-hydroxyethyl)carbamoyl]amino}phenyl)-4-morpholin-4-yl-1H-pyrazolo[3,4-d]pyrimidin-1-yl]piperidine-1-carboxylate] | 580 | 402 | 800 | – | –
12 | CCOC(=O)N1CCC(n2ncc3c(N4CCOC[C@H]4C)nc(-c4ccc(NC(=O)Nc5cccnc5)cc4)nc32)CC1 [Compound 892, ethyl 4-(4-[(3R)-3-methylmorpholin-4-yl]-6-{4-[(pyridin-3-ylcarbamoyl)amino]phenyl}-1H-pyrazolo[3,4-d]pyrimidin-1-yl)piperidine-1-carboxylate] | 70 | 453 | 0.8 | – | –
13 | CNC(=O)Nc1ccc(-c2nc(N3CCOCC3)c3cnn(C4CCN(CC5OCCO5)CC4)c3n2)cc1 [Compound 797, 1-(4-{1-[1-(1,3-dioxolan-2-ylmethyl)piperidin-4-yl]-4-morpholin-4-yl-1H-pyrazolo[3,4-d]pyrimidin-6-yl}phenyl)-3-methylurea] | 300 | 155 | 103 | – | –
14 | CN(C)CCNC(=O)c1cccc(-c2nc(N3CCOCC3)c3cnn(-c4ccccc4)c3n2)c1 [Compound 104] | 3300 | 244 | 3700 | – | –
15 | CNC(=O)Nc1ccc(-c2nc(N3CCOCC3)c3cnn(C4CCN(C(=O)C(F)(F)F)CC4)c3n2)cc1 [Compound 763, 1-methyl-3-(4-{4-morpholin-4-yl-1-[1-(trifluoroacetyl)piperidin-4-yl]-1H-pyrazolo[3,4-d]pyrimidin-6-yl}phenyl)urea] | 500 | 154 | 270 | – | –
16 | CNC(=O)Nc1ccc(-c2nc(N3CCOCC3)c3cnn(C4CCN(C(=O)c5cccnc5C)CC4)c3n2)cc1 [Compound 573, 1-methyl-3-[4-(1-{1-[(2-methylpyridin-3-yl)carbonyl]piperidin-4-yl}-4-morpholin-4-yl-1H-pyrazolo[3,4-d]pyrimidin-6-yl)phenyl]urea] | 900 | 216 | 250 | – | –
17 | CNC(=O)Nc1ccc(-c2nc(N3CCOCC3)c3cnn(C4CCN(C(=O)c5ccc(F)cc5)CC4)c3n2)cc1 [Example 361, 1-(4-{1-[1-(4-fluorobenzoyl)piperidin-4-yl]-4-morpholin-4-yl-1H-pyrazolo[3,4-d]pyrimidin-6-yl}phenyl)-3-methylurea] | 100 | 108 | 27 | – | –
18 | CNC(=O)Nc1ccc(-c2nc(N3CCOCC3)c3cnn(C4CCSCC4)c3n2)cc1 [Compound 867, 1-methyl-3-{4-[4-morpholin-4-yl-1-(tetrahydro-2H-thiopyran-4-yl)-1H-pyrazolo[3,4-d]pyrimidin-6-yl]phenyl}urea] | < 68.5 | 47 | < 18.5 | – | –
19 | CNC(=O)Nc1ccc(-c2nc(N3CCOCC3)c3cnn(C4CCN(C(=O)c5ccc(OC)cc5)CC4)c3n2)cc1 [Compound 609, 1-(4-{1-[1-(4-methoxybenzoyl)piperidin-4-yl]-4-morpholin-4-yl-1H-pyrazolo[3,4-d]pyrimidin-6-yl}phenyl)-3-methylurea] | 350 | 54 | 45 | – | –
20 | CN(C)c1ccc(-c2nc(N3CCOCC3)c3cnn(-c4ccccc4)c3n2)cc1 [Compound 114] | 27000 | 393 | 15000 | – | –
21 | CNC(=O)Nc1ccc(-c2nc(N3CCOCC3)c3cnn(C4CCN(C(=O)c5ccc(Cl)nc5)CC4)c3n2)cc1 [Example 424, 1-[4-(1-{1-[(6-chloropyridin-3-yl)carbonyl]piperidin-4-yl}-4-morpholin-4-yl-1H-pyrazolo[3,4-d]pyrimidin-6-yl)phenyl]-3-methylurea] | 400 | 84 | 150 | – | –
22 | COc1cccc(C(=O)Nc2ccc(-c3nc(N4CCOCC4)c4cnn(C5CCCCO5)c4n3)cc2)c1 (stereo not drawn) [Compound 273, 3-methoxy-N-{4-[4-morpholin-4-yl-1-(tetrahydro-2H-pyran-2-yl)-1H-pyrazolo[3,4-d]pyrimidin-6-yl]phenyl}benzamide] | 60000 | 8320 | 1950 | – | –
23 | CNC(=O)Nc1ccc(-c2nc(N3CCOCC3)c3cnn(C4CCC(=O)CC4)c3n2)cc1 [Compound 567, 1-methyl-3-{4-[4-morpholin-4-yl-1-(4-oxocyclohexyl)-1H-pyrazolo[3,4-d]pyrimidin-6-yl]phenyl}urea] | 180 | 56 | 27 | – | –
24 | O=C(NCCO)Nc1ccc(-c2nc(N3CCOCC3)c3cnn(C4CCN(CC(F)(F)F)CC4)c3n2)cc1 [Compound 784, 1-(2-hydroxyethyl)-3-(4-{4-morpholin-4-yl-1-[1-(2,2,2-trifluoroethyl)piperidin-4-yl]-1H-pyrazolo[3,4-d]pyrimidin-6-yl}phenyl)urea] | 1050 | 380 | 100 | – | –
25 | CNC(=O)Nc1ccc(-c2nc(N3CCOCC3)c3cnn(C4CCN(C(=O)OCC(C)(C)C)CC4)c3n2)cc1 [Compound 876, 2,2-dimethylpropyl 4-(6-{4-[(methylcarbamoyl)amino]phenyl}-4-morpholin-4-yl-1H-pyrazolo[3,4-d]pyrimidin-1-yl)piperidine-1-carboxylate] | 350 | 87 | 110 | – | –
26 | CNC(=O)Nc1ccc(-c2nc(N3CCOCC3)c3cnn(C4CCC(=O)CC4)c3n2)cc1 [Example 322, 1-methyl-3-{4-[4-morpholin-4-yl-1-(4-oxocyclohexyl)-1H-pyrazolo[3,4-d]pyrimidin-6-yl]phenyl}urea] | 200 | 56 | 27 | – | –
27 | O=C(Nc1ccccc1)Nc1ccc(-c2nc(N3CCOCC3)c3cnn(C4CCN(CC(F)(F)F)CC4)c3n2)cc1 [Compound 789, 1-(4-{4-morpholin-4-yl-1-[1-(2,2,2-trifluoroethyl)piperidin-4-yl]-1H-pyrazolo[3,4-d]pyrimidin-6-yl}phenyl)-3-phenylurea] | 900 | 18 | 100 | – | –
28 | C[C@H]1COCCN1c1nc(-c2cccc(O)c2)nc2c1cnn2-c1ccccc1 [Compound 726, 3-{4-[(3S)-3-methylmorpholin-4-yl]-1-phenyl-1H-pyrazolo[3,4-d]pyrimidin-6-yl}phenol] | 8000 | 98 | 2700 | – | –
